Columns and labels:
Format in all cases: physicochemical
[1] = Solubility of compounds in toluene
Protocol: The solubility of the compounds in the toluene were determined as follows: • 1. 1000 mg of toluene solution was placed in the transparent glass sample bottle. • 2. A certain mass of the compound was added into the toluene, and oscillated until completely dissolved. • 3. After the compound was completely dissolved, a certain mass of the compound was further added into the toluene, and oscillated. • 4. The above steps were repeated until the compound wasn't dissolved any more. • 5. The total mass of the compound added was recorded and the solubility was obtained by calculation.

[2] = UV stability of compounds in toluene (absorbance decay to 80%); details: 1×10^−5 mol/L in toluene, UV LEDs 365 nm & 255 nm, time to 80% absorbance, normalized to comparative compound 2 as 100%
Protocol: The compound was dissolved in the toluene with a concentration of 1×10^−5 mol/L. 3 mL solution was added to the cuvette with a lid and the lid was screwed on tightly, then the cuvette was placed in the ultraviolet-visible spectrophotometer to test the absorption spectrum, the absorbance of the maximum absorption peak was recorded as the initial value. The cuvette was placed at a distance of 12 cm from the UV LEDs (365 nm & 255 nm), irradiated for a period and tested its absorption spectrum, then continued to be irradiated after the test, and repeated until the absorbance decayed to 80% of its initial value, the time was recorded as t80.

[3] = Absorption spectrum, emission spectrum and extinction coefficient in toluene solution; details: for Molar extinction coefficient of the toluene solution: maximum absorption peak
Protocol: The extinction coefficients of the compounds and their absorption and emission spectrums in the solution were determined as follows: • 1. The compound with a certain amount of substance concentration in the toluene was prepared in a volumetric flask. • 2. The absorption spectrum of the solution was measured by using an ultraviolet-visible spectrophotometer (Puxi T9s) to obtain the absorption peak wavelength. • 3. The absorbance of the maximum absorption peak divided by the amount of substance concentration is the molar extinction coefficient of the compound. • 4. The emission spectrum of the solution was measured by using a fluorescent spectroscope (Hitachi, F-4700 FL Spectrophotometer) to obtain the emission peak wavelength.

[4] = Absorption and emission spectrum in spin-coated film; details: spin-coated film
Protocol: The absorption and emission spectrums of the compounds in the film were determined as follows: • 1. The compound with a certain concentration in the toluene was prepared. • 2. The prepared toluene solution was dropped onto a clean glass substrate. • 3. Spin-coating, and then heating at the 80° C. for 1 min. • 4. The absorption spectrum of the film was measured by using an ultraviolet-visible spectrophotometer (Puxi T9s) to obtain the absorption peak wavelength. • 5. The emission spectrum of the film was measured by using a fluorescent spectroscope (Hitachi, F-4700 FL Spectrophotometer) to obtain the emission peak wavelength.

[5] = Blue light stability of the film (luminance decay); details: about 800 nm evaporated film, blue LED 460 nm, 3000 cd/m^2, versus comparative compound 1
Protocol: A film about 800 nm was evaporated, encapsulated with a glass cover plate, then placed at 2.5 cm above the blue LED (460 nm, 3000 cd/m^2) to test the luminance value with a luminance meter (Fstar, CS-2000A). The luminance value of the first test was recorded as the initial value, and the luminance was tested by irradiating for a period of time to obtain the luminance decay curve, see FIG. 34.

Compound | Solubilities(/100 g, toluene) [1] [g/100 g toluene] | Times t80 [2] [%] | Absorption peak of the toluene solution [3] [nm] | Emission peak of the toluene solution [3] [nm] | Molar extinction coefficient of the toluene solution [3] | Absorption peak of the film [4] [nm] | Emission peak of the film [4] [nm] | stability of the film under blue-light illumination (luminance decay) [5]
Cc1cccc(C)c1N(c1cc(C(C)(C)C)cc(C(C)(C)C)c1)c1cc(N(c2cc(C(C)(C)C)cc(C(C)(C)C)c2)c2c(C)cccc2C)c2ccc3c(N(c4cc(C(C)(C)C)cc(C(C)(C)C)c4)c4c(C)cccc4C)cc(N(c4cc(C(C)(C)C)cc(C(C)(C)C)c4)c4c(C)cccc4C)c4ccc1c2c43 [compound 5] | 4.6 | 304 | 477 | 497 | 5.6 × 10^4 L · mo 1^−1 | 476 | 497 | 
CCc1cccc(CC)c1N(c1cc(C(C)(C)C)cc(C(C)(C)C)c1)c1cc(N(c2cc(C(C)(C)C)cc(C(C)(C)C)c2)c2c(CC)cccc2CC)c2ccc3c(N(c4cc(C(C)(C)C)cc(C(C)(C)C)c4)c4c(CC)cccc4CC)cc(N(c4cc(C(C)(C)C)cc(C(C)(C)C)c4)c4c(CC)cccc4CC)c4ccc1c2c43 [compound 8] | 30.1 | 261 | 484 | 501 | 5.3 × 10^4 L · mo 1^−1 | 482 | 499 | obviously improved UV stability
CCc1cccc(CC)c1N(c1ccc(C(C)(C)C)cc1)c1cc(N(c2ccc(C(C)(C)C)cc2)c2c(CC)cccc2CC)c2ccc3c(N(c4ccc(C(C)(C)C)cc4)c4c(CC)cccc4CC)cc(N(c4ccc(C(C)(C)C)cc4)c4c(CC)cccc4CC)c4ccc1c2c43 [compound 9] | 25.9 | 279 | 482 | 500 | 5.3 × 10^4 L · mo 1^−1 | 482 | 499 | 
CCCCCCCCc1ccc(-c2cc(C(C)C)ccc2N(c2cc(F)c(F)c(F)c2)c2cc(N(c3cc(F)c(F)c(F)c3)c3ccc(C(C)C)cc3-c3ccc(CCCCCCCC)cc3)c3ccc4c(N(c5cc(F)c(F)c(F)c5)c5ccc(C(C)C)cc5-c5ccc(CCCCCCCC)cc5)cc(N(c5cc(F)c(F)c(F)c5)c5ccc(C(C)C)cc5-c5ccc(CCCCCCCC)cc5)c5ccc2c3c54)cc1 [compound 13] | >15 | 410 | 473 | 494 | 5.9 × 10^4 L · mo 1^−1 | 473 | 490 | 
CC1CCC(C(C)C)C(Oc2ccc(-c3cc(C(C)C)ccc3N(c3cc(F)c(F)c(F)c3)c3cc(N(c4cc(F)c(F)c(F)c4)c4ccc(C(C)C)cc4-c4ccc(OC5CC(C)CCC5C(C)C)cc4)c4ccc5c(N(c6cc(F)c(F)c(F)c6)c6ccc(C(C)C)cc6-c6ccc(OC7CC(C)CCC7C(C)C)cc6)cc(N(c6cc(F)c(F)c(F)c6)c6ccc(C(C)C)cc6-c6ccc(OC7CC(C)CCC7C(C)C)cc6)c6ccc3c4c65)cc2)C1 (centres unmarked) [compound 15] | >10 | 440 | 476 | 493 | 6.8 × 10^4 L · mo 1^−1 | 473 | 491 | 
CCCCCCCCc1ccc(-c2cc(OC)ccc2N(c2cc(F)c(F)c(F)c2)c2cc(N(c3cc(F)c(F)c(F)c3)c3ccc(OC)cc3-c3ccc(CCCCCCCC)cc3)c3ccc4c(N(c5cc(F)c(F)c(F)c5)c5ccc(OC)cc5-c5ccc(CCCCCCCC)cc5)cc(N(c5cc(F)c(F)c(F)c5)c5ccc(OC)cc5-c5ccc(CCCCCCCC)cc5)c5ccc2c3c54)cc1 [compound 16] | >10 | 383 | 475 | 496 | 7.0 × 10^4 L · mo 1^−1 | 476 | 496 | 
CCCCCCCCc1ccc(N(c2ccc(C(C)C)cc2-c2cc(F)c(F)c(F)c2)c2cc(N(c3ccc(CCCCCCCC)cc3)c3ccc(C(C)C)cc3-c3cc(F)c(F)c(F)c3)c3ccc4c(N(c5ccc(CCCCCCCC)cc5)c5ccc(C(C)C)cc5-c5cc(F)c(F)c(F)c5)cc(N(c5ccc(CCCCCCCC)cc5)c5ccc(C(C)C)cc5-c5cc(F)c(F)c(F)c5)c5ccc2c3c54)cc1 [compound 20] | >10 | 528 | 485 | 504 | 5.5 × 10^4 L · mo 1^−1 | 486 | 504 | 

Reference: patent US20250270445A1, “COMPOUNDS AND USES THEREOF IN FIELD OF OPTOELECTRONICS” (Zhejiang Brilliant Optoelectronic Technology Co.,Ltd., priority 2022, published 2025)
